Assay results reported in patent publication US20240325364A1, “COMPOSITIONS FOR USE IN THE TREATMENT OF METABOLIC SYNDROME” (Nottingham Trent University, priority 2021, published 2024).
Entries after “also recorded” stand apart in the source; their conditions may differ.

Tests used:
[1] = test system: C2C12 skeletal muscle cells; assay: Toxicity testing: C2C12 cell viability (Calcein AM fluorescence); type: cell-based; conditions: C2C12 myotubes cultured 5 days in GLT RPMI-1640 medium (28 mM glucose, 200 μM palmitic acid, 200 μM oleic acid) with 100 μM compound
Procedure: C2C12 muscle cell myotubes were cultured for 5 days in the following […] culture media: a control RPMI-1640 medium; glucolipotoxic (GLT) RPMI-1640 medium (28 mM glucose, 200 μM palmitic acid and 200 μM oleic acid) supplemented with 100 μM of M4; GLT RPMI-1640 medium supplemented with 100 µM of M8; GLT RPMI-1640 medium supplemented with 100 μM of M14; GLT RPMI-1640 medium supplemented with 100 μM of M28; and GLT RPMI-1640 medium supplemented with 100 μM of M38. Following culture, media were aspirated and cells washed 3 times in Krebs-Ringer buffer (KRB). A final concentration of […] Calcein AM Cell Viability Dye (ThermoFischer) in KRB was loaded for 1 h before washing again with KRB. Cell viability was measured via fluorescence, with excitation and emission at 490 nm and 520 nm, respectively.

[2] = test system: C2C12 skeletal muscle cells; assay: Reactive species scavenging in C2C12 cells (DCFDA fluorescence); type: cell-based; conditions: C2C12 cells in GLT RPMI-1640 medium 5 days, 100 μM compound
Procedure: C2C12 muscle cell myotubes were cultured for 5 days in standard RPMI-1640 tissue culture media or GLT RPMI-1640 media. Corresponding media were independently supplemented with 100 μM of a compound (M4, M14, M8, M28, and M38 investigated). Non-supplemented standard and GLT RPMI-1640 media were also retained as controls. Cells were thereafter washed 3 times in KRB and 20 μM 2′,7′-dichlorofluorescein diacetate (DCFDA), a cell permeant fluorogenic dye that measures hydroxyl, peroxyl and other ROS, was loaded for 1 h. Reactive species detection was measured via fluorescence, with excitation at 495 nm and emission at 530 nm.

[3] = test system: C2C12 skeletal muscle cells; assay: Glucose uptake (2-deoxy glucose) in C2C12 skeletal muscle cells; type: cell-based; conditions: C2C12 cells 5 days in GLT DMEM medium with 100 μM compound; 100 nM insulin 1 h
Procedure: C2C12 skeletal muscle cell myotubes were cultured for 5 days in standard DMEM tissue culture media or GLT DMEM media. The media were either used without further supplementation (used as controls) or were independently supplemented with 100 μM of a compound (M4, M8, M14, M28, and M38 investigated). Myotubes were then serum-starved overnight in DMEM supplemented with 5 mM glucose, and thereafter incubated for 1 h in glucose-free DMEM or in glucose-free DMEM supplemented with 100 nM insulin stimulant. The media were thereafter replaced with phosphate buffered saline (PBS) containing 0.125 mM 2-deoxy glucose (2-DG). Glucose uptake reactions were conducted for 30 min, and then terminated by addition of stop buffer (0.4 M HCl+2% dodecyl trimethyl ammonium bromide). 2-deoxyglucose-6-phosphate (2DG6P) detection reagent was applied, and data were acquired using a CLARIOStar luminometer (BMG Labtech, Ortenberg, Germany).

[4] = test system: High fat-fed mice; assay: Effect on body weight in an in vivo model of obesity; conditions: high fat diet mice, 45 mg/kg body weight/day via drinking water, 10 weeks
Procedure: High fat-fed mice were used as an animal model of obesity. The body weights of the mice were monitored over a period of 10 weeks. The following three sets of mice were used in the study: • Non-high fat-fed mice that were administered a normal diet. • High fat-fed mice that were administered a high fat diet. • High fat-fed mice that were administered a high fat diet alongside 45 mg/kg body weight/day of compound M8, which was administered via drinking water.
High fat-fed mice were fed the following high fat diet from Research Diets: (60% fat; D12492). Non-high fat-fed mice were used as a control and were fed the following low fat diet from Research Diets: (10% fat, D12450B). The body weights of the mice were measured throughout.

| Structure (SMILES) | cell viability (% change relative to control) [1] | intracellular reactive species (% change relative to control) [2] | insulin-stimulated glucose uptake per total cellular protein [3] | toxic effects on the animals [4] | body weight ([4]; vs high fat-fed mice without compound, 45 mg/kg/day) |
| --- | --- | --- | --- | --- | --- |
| NCc1cc(-c2ccccc2)no1 [M28, (3-phenyl-5-isoxazolyl)methanamine] | none of the tested compounds (M4, M8, M14, M28, and M38) reduce C2C12 skeletal muscle cell viability; also recorded: non-toxic to the cells | reduces GLT-associated reactive species levels | reverse glucolipotoxic inhibition of insulin-stimulated glucose uptake | – | – |
| FC(F)(F)c1ccc(-n2ccnc2)nc1 [M4, 2-(1H-imidazol-1-yl)-5-(trifluoromethyl)pyridine] | none of the tested compounds (M4, M8, M14, M28, and M38) reduce C2C12 skeletal muscle cell viability; also recorded: non-toxic to the cells | reduces GLT-associated reactive species levels | reverse glucolipotoxic inhibition of insulin-stimulated glucose uptake | – | – |
| OCc1ccc(Cn2ccnc2)cc1 [M38, [4-(1H-imidazol-1-ylmethyl)phenyl]methanol] | none of the tested compounds (M4, M8, M14, M28, and M38) reduce C2C12 skeletal muscle cell viability; also recorded: non-toxic to the cells | reduces GLT-associated reactive species levels | reverse glucolipotoxic inhibition of insulin-stimulated glucose uptake | – | – |
| CNCc1ccc(-c2ccco2)nc1 [M8, 6-(2-furanyl)-N-methyl-3-pyridinemethanamine] | none of the tested compounds (M4, M8, M14, M28, and M38) reduce C2C12 skeletal muscle cell viability; also recorded: non-toxic to the cells | reduces GLT-associated reactive species levels | reverse glucolipotoxic inhibition of insulin-stimulated glucose uptake | no toxic effects on the animals | significantly reduces the body weight; also recorded: significant reduction of body weight |
| CNCc1cc(-c2ccccc2)no1 [M14, 5-[(methylamino)methyl]-3-phenylisoxazole] | none of the tested compounds (M4, M8, M14, M28, and M38) reduce C2C12 skeletal muscle cell viability; also recorded: non-toxic to the cells | reduces GLT-associated reactive species levels | reverse glucolipotoxic inhibition of insulin-stimulated glucose uptake | – | – |
